# Source: paper PMC9551036, “A selective and orally bioavailable VHL-recruiting PROTAC achieves SMARCA2 degradation in vivo” (Nature Communications, 2022)
# Values joined by “and” are separate entries in the source; they are usually repeats but may differ in a detail not shown here. Identical values can stand only once. Like-named read-outs stand apart in the source and are kept apart here.
# How the values were obtained:
# SMARCA2 = SMARCA2 (Homo sapiens, UniProt P51531); assay: Ex vivo human whole blood assay, SMARCA2; assay type: cell-based; design: endogenous in cells; settings: for HillSlope (best-fit value) / DC50: four-parameter fit; for Bottom (best-fit value) / Span (best-fit value) / Top (best-fit value): four-parameter fit of % protein remaining; for DC50: read-out: EC50 (best-fit value); for LogEC50 (best-fit value): log10 of concentration (mol/l)
# Method: The assay was performed on human whole blood from three healthy donors, purchased from the Austrian Red Cross who always obtain samples under informed consent. […] Samples were pivoted at room temperature for 18 h in the dark. Subsequently, peripheral blood mononucleated cells (PBMCs) were isolated from individual aliquots using SepMate Tubes (StemCell) and Lymphoprep (StemCell) medium according to the manufacturer’s instructions and protein lysates were prepared using MSD Lysis buffer (Mesocale Discovery) supplemented with 1:100 Halt Phosphatase-Protease Inhibitor Cocktail (Thermo Fisher), 0.5 µl/ml benzonase (Novagen) and 10 mM DTT. SMARCA2 and SMARCA4 protein levels were determined using capillary electrophoresis (Bio-Techne) according to manufacturer’s instructions. Incubation with primary antibodies for SMARCA2 (Cell Signalling #11966 clone D9E8B RRID:AB_2797783 1:25), SMARCA4 (Abcam #ab110641 clone EPNCIR111A RRID:AB_10861578 1:25) and GAPDH (Abcam, #ab9485 RRID:AB_307275 1:1000) were performed for 30 min.
# KRT80 mRNA = assay: qPCR for KRT80 mRNA levels in A549 and NCI-H1568 cells; assay type: cell-based, human; settings: for EC50: Homo sapiens
# Method: 350,000–500,000 cells were seeded in 6-well plates and compounds were added the next day at the indicated concentrations after pre-dilution in medium. Cells were incubated for 18 h, harvested, and RNA was extracted using the RNeasy Mini Kit (Qiagen) according to manufacturer’s instructions. A DNAse digestion step was included. 1 µg RNA was used for cDNA synthesis with the SuperScript VILO cDNA synthesis kit (Invitrogen) according to manufacturer’s instructions. TAQMAN qPCR was then performed using the QuantiTect Multiplex PCR kit (Qiagen) with probes for KRT80 (Hs01372365_m1, Applied Biosystems) and human GAPDH as endogenous control (4326317E, VIC/MGB probe, Primer Limited) for normalisation in a duplex assay over 45 cycles with 100 ng cDNA input. […] Curves were fitted using a 4-parametric logistic model.
# SMARCA2, sequence (P51531 whole entry): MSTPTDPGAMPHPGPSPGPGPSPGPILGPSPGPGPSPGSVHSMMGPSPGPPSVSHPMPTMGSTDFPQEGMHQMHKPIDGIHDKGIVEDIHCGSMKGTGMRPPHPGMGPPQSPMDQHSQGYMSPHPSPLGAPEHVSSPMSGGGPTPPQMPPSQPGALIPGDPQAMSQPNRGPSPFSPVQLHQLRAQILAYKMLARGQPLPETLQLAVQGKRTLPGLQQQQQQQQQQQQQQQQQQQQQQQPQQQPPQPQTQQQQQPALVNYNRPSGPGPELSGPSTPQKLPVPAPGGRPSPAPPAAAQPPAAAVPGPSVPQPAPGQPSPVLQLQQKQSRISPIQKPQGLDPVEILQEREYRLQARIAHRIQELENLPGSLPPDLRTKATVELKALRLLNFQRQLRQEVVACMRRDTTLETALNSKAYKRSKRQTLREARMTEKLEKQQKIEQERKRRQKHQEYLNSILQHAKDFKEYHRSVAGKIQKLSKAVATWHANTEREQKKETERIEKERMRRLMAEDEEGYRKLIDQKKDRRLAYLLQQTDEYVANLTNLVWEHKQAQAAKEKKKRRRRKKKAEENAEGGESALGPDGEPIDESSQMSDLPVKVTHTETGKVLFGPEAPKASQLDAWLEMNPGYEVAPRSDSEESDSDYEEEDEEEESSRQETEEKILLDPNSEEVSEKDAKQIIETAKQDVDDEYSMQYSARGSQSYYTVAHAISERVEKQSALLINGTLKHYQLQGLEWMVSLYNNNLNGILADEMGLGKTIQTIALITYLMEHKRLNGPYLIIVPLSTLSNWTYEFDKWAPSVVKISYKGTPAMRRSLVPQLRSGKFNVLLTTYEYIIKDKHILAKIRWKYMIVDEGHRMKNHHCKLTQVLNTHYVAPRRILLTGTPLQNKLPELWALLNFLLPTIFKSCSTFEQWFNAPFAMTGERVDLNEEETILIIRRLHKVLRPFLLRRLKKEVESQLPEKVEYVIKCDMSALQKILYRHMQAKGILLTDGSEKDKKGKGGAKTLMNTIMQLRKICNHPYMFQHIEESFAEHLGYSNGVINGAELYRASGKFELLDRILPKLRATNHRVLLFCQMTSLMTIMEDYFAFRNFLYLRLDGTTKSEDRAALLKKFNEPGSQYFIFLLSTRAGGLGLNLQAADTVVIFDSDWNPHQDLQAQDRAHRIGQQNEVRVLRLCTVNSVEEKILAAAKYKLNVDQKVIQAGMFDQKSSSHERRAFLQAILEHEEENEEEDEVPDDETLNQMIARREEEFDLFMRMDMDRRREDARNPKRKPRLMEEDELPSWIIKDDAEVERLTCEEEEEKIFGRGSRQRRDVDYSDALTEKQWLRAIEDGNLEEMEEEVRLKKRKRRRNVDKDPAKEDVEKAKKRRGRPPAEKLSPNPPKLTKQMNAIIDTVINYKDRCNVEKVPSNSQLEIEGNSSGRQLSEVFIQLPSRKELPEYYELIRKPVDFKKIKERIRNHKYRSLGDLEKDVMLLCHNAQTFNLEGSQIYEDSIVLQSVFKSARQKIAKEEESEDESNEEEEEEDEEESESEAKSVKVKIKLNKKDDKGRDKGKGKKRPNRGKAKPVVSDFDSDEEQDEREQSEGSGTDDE
compound,measurement,setting,value
Cc1ncsc1-c1ccc(C(CCC(C)CCN2CCC(c3ccc4c(c3)n(C3CCCC3)c3nc(=O)c5c(Br)cccc5n43)CC2)NC(=O)C2CC(O)CN2C(=O)C(NC(=O)C2(F)CC2)C(C)(C)C)cc1 (centres unmarked) [ACBI2],"% protein remaining, SMARCA2","SMARCA2; Donor 1, log10[concentration (mol/l)] -6",7.774% and 7.336% and 6.483%
same,"% protein remaining, SMARCA2","SMARCA2; Donor 1, log10[concentration (mol/l)] -6.47712",27.8553% and 21.8081% and 18.9544%
same,"% protein remaining, SMARCA2","SMARCA2; Donor 1, log10[concentration (mol/l)] -6.95424",43.7755% and 37.877% and 37.8583%
same,"% protein remaining, SMARCA2","SMARCA2; Donor 1, log10[concentration (mol/l)] -7.43136",67.8936% and 57.3294% and 53.6432%
same,"% protein remaining, SMARCA2","SMARCA2; Donor 1, log10[concentration (mol/l)] -7.90848",91.2009% and 93.1862% and 66.2599%
same,"% protein remaining, SMARCA2","SMARCA2; Donor 1, log10[concentration (mol/l)] -8.38561",88.6362% and 87.296% and 66.0015%
same,"% protein remaining, SMARCA2","SMARCA2; Donor 1, log10[concentration (mol/l)] -8.86273",73.7554% and 107.064% and 91.2397%
same,HillSlope (best-fit value),SMARCA2; Donor 1 SMARCA2,-0.8748
same,Bottom (best-fit value),SMARCA2; Donor 1 SMARCA2,-2.012%
same,Span (best-fit value),SMARCA2; Donor 1 SMARCA2,93.51%
same,Top (best-fit value),SMARCA2; Donor 1 SMARCA2,91.5%
same,DC50,SMARCA2; Donor 1 SMARCA2,91.1 nM
same,LogEC50 (best-fit value),SMARCA2; Donor 1 SMARCA2,-7.04
same,"% protein remaining, SMARCA2","SMARCA2; Donor 2, log10[concentration (mol/l)] -6",7.351% and 9.811% and 14.3342%
same,"% protein remaining, SMARCA2","SMARCA2; Donor 2, log10[concentration (mol/l)] -6.47712",29.8249% and 32.3978% and 22.5296%
same,"% protein remaining, SMARCA2","SMARCA2; Donor 2, log10[concentration (mol/l)] -6.95424",46.7755% and 52.5543% and 72.1634%
same,"% protein remaining, SMARCA2","SMARCA2; Donor 2, log10[concentration (mol/l)] -7.43136",100.769% and 75.1426% and 71.9733%
same,"% protein remaining, SMARCA2","SMARCA2; Donor 2, log10[concentration (mol/l)] -7.90848",102.968% and 75.392% and 80.5753%
same,"% protein remaining, SMARCA2","SMARCA2; Donor 2, log10[concentration (mol/l)] -8.38561",67.4421% and 97.2734% and 86.3024%
same,"% protein remaining, SMARCA2","SMARCA2; Donor 2, log10[concentration (mol/l)] -8.86273",85.0643% and 65.7852% and 85.6876%
same,HillSlope (best-fit value),SMARCA2; Donor 2 SMARCA2,-1.742
same,Bottom (best-fit value),SMARCA2; Donor 2 SMARCA2,8.097%
same,Span (best-fit value),SMARCA2; Donor 2 SMARCA2,75.81%
same,Top (best-fit value),SMARCA2; Donor 2 SMARCA2,83.91%
same,DC50,SMARCA2; Donor 2 SMARCA2,172 nM
same,LogEC50 (best-fit value),SMARCA2; Donor 2 SMARCA2,-6.765
same,"% protein remaining, SMARCA2","SMARCA2; Donor 3, log10[concentration (mol/l)] -6",11.0787% and 14.9408% and 20.3816%
same,"% protein remaining, SMARCA2","SMARCA2; Donor 3, log10[concentration (mol/l)] -6.47712",32.5224% and 22.883% and 24.5065%
same,"% protein remaining, SMARCA2","SMARCA2; Donor 3, log10[concentration (mol/l)] -6.95424",43.403% and 45.8346% and 34.6157%
same,"% protein remaining, SMARCA2","SMARCA2; Donor 3, log10[concentration (mol/l)] -7.43136",68.0983% and 70.9906% and 84.1093%
same,"% protein remaining, SMARCA2","SMARCA2; Donor 3, log10[concentration (mol/l)] -7.90848",97.8509% and 97.5546% and 65.5857%
same,"% protein remaining, SMARCA2","SMARCA2; Donor 3, log10[concentration (mol/l)] -8.38561",73.4464% and 119.725% and 73.7076%
same,"% protein remaining, SMARCA2","SMARCA2; Donor 3, log10[concentration (mol/l)] -8.86273",88.433% and 116.976% and 110.86%
same,HillSlope (best-fit value),SMARCA2; Donor 3 SMARCA2,-0.9991
same,Bottom (best-fit value),SMARCA2; Donor 3 SMARCA2,9.358%
same,Span (best-fit value),SMARCA2; Donor 3 SMARCA2,92.07%
same,Top (best-fit value),SMARCA2; Donor 3 SMARCA2,101.4%
same,DC50,SMARCA2; Donor 3 SMARCA2,70.3 nM
same,LogEC50 (best-fit value),SMARCA2; Donor 3 SMARCA2,-7.153
same,SMARCA2 degradation in human whole blood,"SMARCA2; three healthy donors, 18 h",significant degradation of SMARCA2
same,KRT80 mRNA levels,KRT80 mRNA; 18 h treatment,decreased mRNA levels of KRT80
same,"Bottom (% KRT80 mRNA, four-parameter fit)",KRT80 mRNA; A549,1.487%
same,HillSlope (KRT80 mRNA),KRT80 mRNA; A549,-1.195
same,"Top (% KRT80 mRNA, four-parameter fit)",KRT80 mRNA; A549,88.72%
same,% KRT80 mRNA,"KRT80 mRNA; A549, conc 1e-10 mol/l",68.3704%
same,% KRT80 mRNA,"KRT80 mRNA; A549, conc 3.2e-10 mol/l",113.907%
same,% KRT80 mRNA,"KRT80 mRNA; A549, conc 1e-9 mol/l",83.7736%
same,% KRT80 mRNA,"KRT80 mRNA; A549, conc 1.6e-9 mol/l",68.0813%
same,% KRT80 mRNA,"KRT80 mRNA; A549, conc 8e-9 mol/l",32.1733%
same,% KRT80 mRNA,"KRT80 mRNA; A549, conc 1e-8 mol/l",59.5378%
same,% KRT80 mRNA,"KRT80 mRNA; A549, conc 4e-8 mol/l",6.155%
same,% KRT80 mRNA,"KRT80 mRNA; A549, conc 1e-7 mol/l",5.176%
same,% KRT80 mRNA,"KRT80 mRNA; A549, conc 2e-7 mol/l",3.074%
same,% KRT80 mRNA,"KRT80 mRNA; A549, conc 1e-6 mol/l",3.879% and 3.0631%
same,EC50,"KRT80 mRNA; A549, read-out: EC50 (KRT80 mRNA)",8.27 nM
same,EC50,"KRT80 mRNA; A549, read-out: LogEC50 (KRT80 mRNA) (converted)",8.26 nM
same,EC50,"KRT80 mRNA; NCI-H1568, read-out: EC50 (KRT80 mRNA)",9.77 nM
same,EC50,"KRT80 mRNA; NCI-H1568, read-out: LogEC50 (KRT80 mRNA) (converted)",9.77 nM
same,"Bottom (% KRT80 mRNA, four-parameter fit)",KRT80 mRNA; NCI-H1568,16.16%
same,"Top (% KRT80 mRNA, four-parameter fit)",KRT80 mRNA; NCI-H1568,89.57%
same,% KRT80 mRNA,"KRT80 mRNA; NCI-H1568, conc 1e-10 mol/l",84.6925%
same,% KRT80 mRNA,"KRT80 mRNA; NCI-H1568, conc 1.6e-9 mol/l",88.1629%
same,% KRT80 mRNA,"KRT80 mRNA; NCI-H1568, conc 8e-9 mol/l",95.8588%
same,% KRT80 mRNA,"KRT80 mRNA; NCI-H1568, conc 1e-8 mol/l",27.1635%
same,% KRT80 mRNA,"KRT80 mRNA; NCI-H1568, conc 4e-8 mol/l",13.5152%
same,% KRT80 mRNA,"KRT80 mRNA; NCI-H1568, conc 1e-7 mol/l",10.7775%
same,% KRT80 mRNA,"KRT80 mRNA; NCI-H1568, conc 2e-7 mol/l",11.1934%
same,% KRT80 mRNA,"KRT80 mRNA; NCI-H1568, conc 1e-6 mol/l",17.4529% and 27.8788%
